Test results as given in patent publication US11065252B2, “Treatment of rosacea with P38 and Erk kinase pathway inhibitors” (Albany Medical College, priority 2016, dated 2021).

What was measured:
Balb/c mice = experiment: Skin safety of daily topical cream on shaved backs of mice; type: in vivo
Text: Wild type Balb/c mice of 6-8 weeks of age were used to determine the safety and efficacy of application of a cream containing an inhibitor of the Erk pathway. Animal studies were approved by the Albany Medical Center Institutional Review Board. The fur of the back was removed with an application of Nair. Three days later, three marks were made on the backs of the mice and treated with a cream containing trametinib (an Erk pathway inhibitor), vehicle cream (without an active ingredient) or nothing daily for five days. One hour after the last application, the spots were treated with one cream or the other, and cutaneous inflammation was induced via exposure to 1-Fluoro-2,4-dinitrobenzene (hereafter DNFB). Six hours later mice were euthanized and the skin spots were processed for histological analysis.
More specifically, to determine whether a cream containing an inhibitor of the Erk activation pathway would effectively penetrate the skin and protect it from an external injury, four mice were treated once a day for five consecutive days on a shaved back with a cream containing 0.1 mg/ml trametinib and cream without drug as described in FIG. 4. Regions labeled ‘U’ were left untreated and represent the baseline normal skin. […] Regions labeled ‘T’ were treated with a cream containing trametinib as the active ingredient. […]

[1] = test system: subjects with acute coronary syndrome; settings: phase III trial; cited from earlier work

Structure (SMILES) | Skin changes after application of cream (photographs) (Balb/c mice; cream containing 0.1 mg/ml trametinib, topical, once a day for five days, shaved back) | Acute adverse effect in the skin (Balb/c mice; topical cream containing trametinib, five days) | Efficacy in reducing the incidence of cardiovascular events [1] | Safety profile in trial [1]
CC(=O)Nc1cccc(-n2c(=O)n(C3CC3)c(=O)c3c(Nc4ccc(I)cc4F)n(C)c(=O)c(C)c32)c1 [trametinib, Trametinib] | No skin changes | does not elicit an acute adverse effect | – | –
Cc1c(F)cc(C(=O)NC2CC2)cc1-c1ccc(C(=O)NCC(C)(C)C)cn1 [Losmapimod] | – | – | did not demonstrate efficacy | good safety profile
